# According to ChEMBL document CHEMBL1806479, “Structure-activity study on a series of α-glutamic acid scaffold based compounds as new ADAMTS inhibitors” (Bioorg Med Chem Lett, 2011):
# Assays:
# [1] = biological target: T1, A disintegrin and metalloproteinase with thrombospondin motifs 4 (Homo sapiens) (UniProt O75173); experiment: Inhibition of human recombinant ADAMTS4 at 1 uM by fluorimetric assay
# T1 sequence (whole entry): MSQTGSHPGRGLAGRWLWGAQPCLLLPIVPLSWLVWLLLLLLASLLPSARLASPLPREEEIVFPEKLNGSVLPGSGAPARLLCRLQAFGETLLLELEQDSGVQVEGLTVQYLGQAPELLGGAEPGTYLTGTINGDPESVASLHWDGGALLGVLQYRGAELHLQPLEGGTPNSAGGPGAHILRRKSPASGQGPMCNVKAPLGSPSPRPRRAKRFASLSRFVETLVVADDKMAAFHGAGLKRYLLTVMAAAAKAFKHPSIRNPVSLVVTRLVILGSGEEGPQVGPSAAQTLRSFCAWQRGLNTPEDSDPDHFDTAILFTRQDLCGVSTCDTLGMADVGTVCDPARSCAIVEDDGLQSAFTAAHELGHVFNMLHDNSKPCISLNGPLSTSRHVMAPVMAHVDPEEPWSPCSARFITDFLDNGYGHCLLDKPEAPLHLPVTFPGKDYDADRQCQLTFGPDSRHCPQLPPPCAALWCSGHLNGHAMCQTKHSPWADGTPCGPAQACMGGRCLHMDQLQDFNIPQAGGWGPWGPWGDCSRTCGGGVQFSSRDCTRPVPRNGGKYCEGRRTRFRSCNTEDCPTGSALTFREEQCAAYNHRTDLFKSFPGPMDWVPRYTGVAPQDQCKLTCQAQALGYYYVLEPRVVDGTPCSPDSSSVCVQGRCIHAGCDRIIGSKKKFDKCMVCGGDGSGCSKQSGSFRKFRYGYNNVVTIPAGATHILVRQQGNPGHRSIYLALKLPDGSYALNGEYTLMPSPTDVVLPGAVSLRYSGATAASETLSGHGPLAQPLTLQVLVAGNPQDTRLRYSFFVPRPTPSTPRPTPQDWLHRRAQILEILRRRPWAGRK
# [2] = biological target: T2, A disintegrin and metalloproteinase with thrombospondin motifs 4 (Homo sapiens, UniProt O75173); experiment: (§1) Inhibition of human recombinant ADAMTS4 by fluorimetric assay
# T2 sequence (O75173 whole entry): T1 sequence (whole entry)
# [3] = biological target: T1, A disintegrin and metalloproteinase with thrombospondin motifs 4 (Homo sapiens); experiment: as §1
# [4] = biological target: T1, A disintegrin and metalloproteinase with thrombospondin motifs 4 (Homo sapiens); experiment: Inhibition of human recombinant ADAMTS4 at 10 uM by fluorimetric assay
# [5] = biological target: T3, A disintegrin and metalloproteinase with thrombospondin motifs 5 (Homo sapiens, UniProt Q9UNA0); experiment: Inhibition of human recombinant ADAMTS5 by fluorimetric assay
# T3 sequence (Q9UNA0 whole entry): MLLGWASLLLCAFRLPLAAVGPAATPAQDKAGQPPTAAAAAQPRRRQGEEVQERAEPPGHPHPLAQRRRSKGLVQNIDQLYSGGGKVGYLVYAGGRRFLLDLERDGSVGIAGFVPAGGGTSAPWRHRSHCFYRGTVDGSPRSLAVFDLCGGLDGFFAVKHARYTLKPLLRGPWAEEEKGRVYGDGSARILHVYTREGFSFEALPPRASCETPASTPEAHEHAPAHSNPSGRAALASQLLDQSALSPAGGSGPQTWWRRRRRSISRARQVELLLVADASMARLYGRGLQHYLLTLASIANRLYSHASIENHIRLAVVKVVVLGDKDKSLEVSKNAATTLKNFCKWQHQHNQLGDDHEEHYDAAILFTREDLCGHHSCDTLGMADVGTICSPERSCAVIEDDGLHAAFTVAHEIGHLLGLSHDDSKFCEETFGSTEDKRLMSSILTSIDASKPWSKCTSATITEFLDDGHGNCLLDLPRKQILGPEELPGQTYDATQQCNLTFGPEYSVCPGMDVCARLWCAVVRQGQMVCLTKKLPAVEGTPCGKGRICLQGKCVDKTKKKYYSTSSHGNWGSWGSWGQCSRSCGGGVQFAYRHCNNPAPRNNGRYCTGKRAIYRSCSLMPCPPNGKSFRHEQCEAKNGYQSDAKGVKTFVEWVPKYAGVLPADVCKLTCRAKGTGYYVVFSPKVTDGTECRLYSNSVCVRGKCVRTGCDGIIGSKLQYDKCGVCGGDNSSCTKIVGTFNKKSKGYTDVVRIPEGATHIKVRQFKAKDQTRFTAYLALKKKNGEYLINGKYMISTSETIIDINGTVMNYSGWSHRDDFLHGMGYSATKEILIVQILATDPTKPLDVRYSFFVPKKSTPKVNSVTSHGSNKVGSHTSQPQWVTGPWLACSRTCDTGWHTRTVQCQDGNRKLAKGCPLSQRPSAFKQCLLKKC
# [6] = Inhibition of aggrecanase
inhibition [1],IC50 [2],inhibition [3],inhibition [4],IC50 [5],IC50 [6],Compound
27%,,,56%,,,Cc1ccc(CCc2nnc([C@H](CCC(=O)O)NC(=O)c3ccc(-c4ccccc4)cc3)o2)cc1
17%,,,26%,,,O=C(O)CC[C@H](NC(=O)c1ccc(-c2ccccc2)cc1)c1nnc(Cc2ccccc2)o1
35%,4.9 µM,Dose-dependent effect,66%,24.3 µM,,COc1ccc(CCc2nnc([C@H](CCC(=O)O)NC(=O)c3ccc(-c4ccccc4)cc3)o2)cc1
5%,,,21%,,,COc1ccc(Cc2nnc([C@H](CCC(=O)O)NC(=O)c3ccc(-c4ccccc4)cc3)o2)cc1
22%,,,51%,,,O=C(O)CC[C@H](NC(=O)c1ccc(-c2ccccc2)cc1)c1nnc(CCc2ccc(O)cc2)o1

# More lines, now with the values behind:
Compound,inhibition [1],IC50 [2],inhibition [3],inhibition [4],IC50 [5],IC50 [6]
COc1cc(CCc2nnc([C@H](CCC(=O)O)NC(=O)c3ccc(-c4ccccc4)cc3)o2)cc(OC)c1OC,35%,3.3 µM,Dose-dependent effect,74%,4.3 µM,
CC(C)(Cc1nnc([C@H](CCC(=O)O)NC(=O)c2ccc(-c3ccccc3)cc2)o1)c1ccccc1,19%,,,45%,,
O=C(C[C@@H](Cc1ccc(-c2ccc3c(c2)OCO3)cc1)C(=O)N[C@@H]1c2ccccc2C[C@@H]1O)NO,,,,,,0.0015 µM
O=C(O)CC[C@H](NC(=O)c1ccc(-c2ccccc2)cc1)c1nnc(C2(c3ccccc3)CC2)o1,5%,,,20%,,
CC(C)(c1ccccc1)c1nnc([C@H](CCC(=O)O)NC(=O)c2ccc(-c3ccccc3)cc2)o1,-5%,,,5%,,
O=C(O)CC[C@H](NC(=O)c1ccc(-c2cccnc2)cc1)c1nnc(CCc2ccccc2)o1,12%,,,39%,,
O=C(O)CC[C@H](NC(=O)c1ccc(-c2ccncc2)cc1)c1nnc(CCc2ccccc2)o1,8%,,,18%,,
O=C(O)CC[C@H](NC(=O)c1ccc(-c2ccccc2)cc1)c1nnc(CCc2ccccc2)o1,30%,9.7 µM,Dose-dependent effect,59%,57.3 µM,
COc1cc(Cc2nnc([C@H](CCC(=O)O)NC(=O)c3ccc(-c4ccccc4)cc3)o2)cc(OC)c1OC,47%,1.2 µM,Dose-dependent effect,86%,0.8 µM,
CC(C)(Cc1ccccc1)c1nnc([C@H](CCC(=O)O)NC(=O)c2ccc(-c3ccccc3)cc2)o1,23%,,,47%,,
